{"source": "patent US20230013403A1", "about": "“COMPOSITIONS COMPRISING HUMAN MILK OLIGOSACCHARIDES FOR USE IN A SUBJECT TO SUPPORT LANGUAGE DEVELOPMENT” (SOCIETE DES PRODUITS NESTLE S.A., priority 2019, published 2023)", "origin": "cited, not measured here", "test_system": "rodents", "details": "chronic oral administration", "data": [{"substance": "2′ fucosyllactose [2′FL]", "values": [{"measurement": "learning and working memory functions of treated animals", "result": "significantly better"}]}]}
